How the values were obtained:
[1] = test system: SK-N-SH cells (Her2 negative); assay: In vitro cytotoxic activity (CytoTox-Glo), SK-N-SH; assay type: cell-based; conditions: Homo sapiens, 48 hours, medium pH 6.5
Procedure: (§1) The conjugates were also tested in a Her2 negative cell line, […] as an experimental control. Serial dilutions of the conjugates and control compound were prepared. Cells were lifted from the flask using 2 mL of trypsin for 5 min, neutralized with 8 mL of complete growth medium, and centrifuged at 1200 rpm for 5 min. The supernatant was aspirated and the cell pellet was washed with PBS, centrifuged, then resuspended in complete growth medium (McCoy's for SKOV3 and RPMI-1640 for N87 and SK-N-SH, supplemented with 10% heat inactivated FBS), pH 6.5. Cells were counted, diluted, and then plated in white, clear bottom 96-well plates at a density of 20,000 cells/well, then followed immediately by addition of conjugates and control compound. Cells were incubated with the test articles for 48 hours in a 37° C., 5% CO^2 incubator, and then analyzed for cytotoxic activity using Promega CytoTox-Glo chemiluminescent reagent (Cat#G9291). Signal was quantified with a Perkin Elmer TopCount plate reader, and the data was analyzed using the GraphPad Prism software. FIGS. 4, 5, and 6 are linear regression graphs for each cell line where mean RLU is plotted vs. concentration.

[2] = test system: N87 gastric carcinoma xenografts; assay: Antitumor activity in N87 (HER2 overexpressing gastric carcinoma) xenografts; assay type: in vivo, female SCID mice; conditions: single i.v.; for Animals with tumors in inhibition (number/group) / Animals with tumors in regression (number/group) / Mean Tumor Growth Inhibition / Regression: Day 35; for Highest Tumor Volume Recorded / Lowest Tumor Volume Recorded / Tumor Volume on Study Termination (Day 35) / Tumor Volume on Treatment Initiation (Day 0): Mean±SEM; for Tumor Volume on Treatment Initiation (Day 0): baseline
Description: The objective of this study was to evaluate the antitumor activity of a single administration of anti-HER2 targeted PEG-conjugated docetaxel on N87 gastric carcinoma xenografts in female SCID mice.
Animal Husbandry: Female C.B.-17 SCID mice (5-6 weeks old), purchased from Charles River Laboratories were used for this study. Upon arrival, the mice were housed in ventilated polycarbonate cages with sterile bedding at five animals per cage and acclimated for a minimum of three days. The cages were identified by cage labels or tags. Sterilized (autoclaved or irradiated) water and commercial rodent diet were supplied ad libitum. Cages, bedding and water bottles were changed at least once a week and food was replenished as needed. The animals were maintained at a temperature
Tumor Cell Preparation: All handling and preparation of cells were conducted in a biosafety cabinet for sterility and safety. N87, gastric carcinoma cells from the NEKTAR liquid nitrogen freezers were used for this study. The cells were grown in sterile tissue culture flasks with RPMI 1640 media containing 10% Fetal Bovine Serum (FBS) until 85% confluence. To prepare for implantation, the cells in the flasks were rinsed briefly with an appropriate amount of 0.25% trypsin solution. The rinsate was removed and replaced with 2 to 3 mL of fresh 0.25% trypsin solution. The flasks were then placed in a 37′C incubator for 5 minutes. When the cells dissociated, an appropriate amount of complete growth media was added to neutralize the trypsin. The suspension was centrifuged at 1000 rpm for 10 minutes after which the supernatant was discarded. The cells were washed by resuspending the pellet in an appropriate volume of serum free media. A sample was removed for counting and the rest of the suspension was again centrifuged at 1000 rpm for 10 minutes. After centrifugation, the supernatant was discarded and the cell pellet resuspended in serum free media at an appropriate volume determined by the cell count.
Tumor Cell Implantation: All handling of animals and procedures were done in a biosafety cabinet. The animals' flanks were shaved prior to the day of implantation. The mice were anesthetized via isoflurane inhalation, when in proper anesthetic plane; the flanks were wiped with 70% isopropanol followed by implantation of the NCI N87 cells at 1×10^7 cells/site in 0.2 mL volume (in 50% Matrigel®) injected subcutaneous on the right flank of the animals. The animals were distributed accordingly based on the randomization generated by the StudyLog® software.
Treatment Groups: There were 5 groups with 8 to 10 animals each. Included were vehicle (Saline), Docetaxel at 10 mg/kg and 20 mg/kg, Affibody A-linear 2 kD PEG-docetaxel 10 mg/kg (Example 6) (Docetaxel concentration) and Affibody A-linear 20 kD PEG-docetaxel at 10 mg/kg (Example 6) (Docetaxel concentration) respectively.
Treatment Administration: The animals were distributed based on the randomization generated by the StudyLog® software. The mean tumor volumes on treatment day (Day 0) ranged from 209±8 mm^3 to 239±15 mm^3 (Mean±SEM). All test articles were diluted in sterile saline to the appropriate concentration and were administered as single dose to the appropriate treatment group via intravenous injection (i.v.). Animals were warmed in clear acrylic hotboxes to facilitate venous dilation. While in the hotboxes, the animals were closely observed for signs of overheating and distress. When the animals were amply warmed, they were removed from the hotboxes and transferred into appropriate mouse restrainers. The tails were wiped with alcohol pads and the test article in a syringe with a 27 gauge needle was injected into the lateral tail vein. Maximum treatment volume for the i.v. injections will not exceed 20 mL/kg.
Tumor Measurements and Body Weights: Tumors size was monitored at least twice weekly. Dimensions (length and the width) were measured using digital calipers. Tumor volume was computed using the formula: […]

[3] = Body weight in the N87 xenograft study; assay type: in vivo, female SCID mice
Procedure: Where: L=length of the tumor in millimeters and W=width of the tumor in millimeters Tumor growth on each animal was monitored to a maximum volume of […]. Animals were weighed prior to implantation and at least twice weekly for the duration of the study.
Mean body weights ranged from 19.6±0.4 g to 20.7±0.5 g (Mean±SEM) on treatment day (FIG. 10). Greatest mean body weight loss observed was 4% in group 3 (docetaxel, 20 mg·kg) on day 4 followed by group 2 (Docetaxel, 10 mg/kg) at 2% observed on days 4 and 7 (FIG. 11). No abnormal clinical observations were noted throughout the study.

[4] = test system: NCI-N87 cells (Her2 positive); assay: In vitro cytotoxic activity (CytoTox-Glo), NCI-N87; assay type: cell-based; conditions: Homo sapiens, N87, 48 hours, medium pH 6.5
Procedure: as §1

[5] = test system: SKOV-3 cells (Her2 positive); assay: In vitro cytotoxic activity (CytoTox-Glo), SKOV-3; assay type: cell-based; conditions: Homo sapiens, SK-OV-3; SKOV3, 48 hours, medium pH 6.5
Procedure: as §1

CC(=O)O[C@@]12CO[C@@H]1C[C@H](O)[C@@]1(C)C(=O)[C@H](O)C3=C(C)[C@@H](OC(=O)[C@H](O)[C@@H](NC(=O)OC(C)(C)C)c4ccccc4)C[C@@](O)([C@@H](OC(=O)c4ccccc4)[C@H]21)C3(C)C [Docetaxel, reference compound]
EC50 [1]: 1.97 nM | Animals with tumors in inhibition (number/group) ([2]; Docetaxel Dose 10 mg/kg): (9/10) | Animals with tumors in regression (number/group) ([2]; Docetaxel Dose 10 mg/kg): (1/10) | Mean Tumor Growth Inhibition ([2]; Docetaxel Dose 10 mg/kg): 67.5% | Regression ([2]; Docetaxel Dose 10 mg/kg): 26% | Highest Tumor Volume Recorded ([2]; Docetaxel Dose 10 mg/kg): 452 ± 80 mm^3 | Lowest Tumor Volume Recorded ([2]; Docetaxel Dose 10 mg/kg): 182 ± 25 mm^3 | Tumor Volume on Study Termination (Day 35) ([2]; Docetaxel Dose 10 mg/kg): 452 ± 80 mm^3 | Tumor Volume on Treatment Initiation (Day 0) ([2]; Docetaxel Dose 10 mg/kg): 224 ± 19 mm^3 | Animals with tumors in inhibition (number/group) ([2]; Docetaxel Dose 20 mg/kg): (9/10) | Animals with tumors in regression (number/group) ([2]; Docetaxel Dose 20 mg/kg): (1/10) | Mean Tumor Growth Inhibition ([2]; Docetaxel Dose 20 mg/kg): 85% | Regression ([2]; Docetaxel Dose 20 mg/kg): 10% | Highest Tumor Volume Recorded ([2]; Docetaxel Dose 20 mg/kg): 330 ± 33 mm^3 | Lowest Tumor Volume Recorded ([2]; Docetaxel Dose 20 mg/kg): 145 ± 8 mm^3 | Tumor Volume on Study Termination (Day 35) ([2]; Docetaxel Dose 20 mg/kg): 330 ± 33 mm^3 | Tumor Volume on Treatment Initiation (Day 0) ([2]; Docetaxel Dose 20 mg/kg): 225 ± 12 mm^3 | Mean body weight loss ([3]; 10 mg/kg, days 4 and 7): 2% | Greatest mean body weight loss ([3]; 20 mg·kg, day 4): 4% | EC50 [4]: 0.00544 nM | EC50 [5]: 1.9 nM

From patent US20190030182A1, “WATER-SOLUBLE POLYMER-LINKED BINDING MOIETY AND DRUG COMPOUNDS” (Nektar Therapeutics, priority 2011, published 2019)
